PMC6256925, “The Anti-HIV Actions of 7- and 10-Substituted Camptothecins” (Molecules, 2009)
Values after ≈ are worked out from the molar mass of the structure shown. “Also recorded” adds a separate entry of the source. Like-named read-outs stand apart in the source and are kept apart here.

Key:
[1] = tested on: HIV-2ROD; experiment: Syncytia assay (CPE inhibition), HIV-2ROD in C8166 cells; format: cell-based
Procedure: (§1) In the presence of 100 μL of various concentrations of the tested compound, C8166 cells (4 × 10^5cells/mL) were infected with virus (HIV-1IIIB, HIV-2CBL-20 or HIV-2ROD) at a multiplicity of infection (M.O.I.) of 0.06. The final volume per well was 200 μL. Control assays were performed without the testing compounds in HIV-1 IIIB infected and uninfected cultures. AZT was included as positive control. After three days of culture, the cytopathic effect (CPE) was measured by counting the number of syncytia in each well under an inverted microscope. EC50 was then calculated.

[2] = molecular target: T1, HIV-1 reverse transcriptase (Human immunodeficiency virus type 1 group M subtype B, UniProt P04585); experiment: Inhibition assay of recombinant HIV-1 RT activity (ELISA); format: biochemical
T1 construct: purchased Roche, Mannheim, Germany
Procedure: HIV-1 reverse transcriptase (RT) activity was measured by the ELISA RT kit using a commercially available kit (Roche, Mannheim, Germany) according to the instructions of the manufacturer. The compounds were incubated with DIG-labeled reaction mixture at 37 °C for 2 h, then anti-DIG-POD solution was added, followed by substrate ABTS. Foscarnet was used as a positive control. The absorbency at 405 nm/490 nm was read on the Bio-Tek ELx 800 ELISA reader.

[3] = MTT-based cytotoxicity assay, Jurkat/HIV-1IIIB; format: cell-based; details: human, Jurkat/HIV-1IIIB cells
Procedure: (§2) Cellular toxicity of compounds 1–3 was assessed by the MTT method, as described previously. Briefly, cells were seeded on a microtiter plate in the absence or presence of various concentrations of compounds in triplicate and incubated at 37 °C in a humid atmosphere of 5% CO2 for three days. Twenty microliters of MTT reagent (5 mg/mL in PBS) was added to each well, then incubated at 37 °C for 4 h. One hundred microliters of 50% DMF-20% SDS was then added. After the formazan was dissolved completely, the plates were read on a Bio-Tek ELx 800 ELISA reader at 595 nm/630 nm. The results were shown as absorbance values, and the CC50 was calculated.

[4] = molecular target: T2, HIV-1 integrase (Human immunodeficiency virus type 1 group M subtype B, UniProt P04585); experiment: Binding to HIV-1 integrase by SPR (BIAcore)
T2 construct: Integrase was immobilized on the surface of the chip
Procedure: The interaction between the compound and HIV-1 integrase (IN) was determined by SPR using a BIAcore 3000TM biosensor system as previously described. Integrase was immobilized on the surface of the chip. To allow association, various concentrations of the compound diluted in HBS-EP was applied to a chip containing immobilized integrase. Dissociation of the compound from the integrase was monitored in real-time after application of buffer to wash the chip and the kinetic rate constants for dissociation (Kd) was obtained by fitting the real-time data using BIA evaluation software.

[5] = tested on: HIV-1IIIB/H9; experiment: Co-cultivation assay (cell-to-cell fusion C8166 with H9/HIV-1IIIB); format: cell-based
Procedure: Cell-to-cell fusion between normal C8166 cells and H9 cells chronically infected withHIV-1IIIB was quantified under an inverted microscope. First, 3 × 10^4 C8166 cells co-cultured with 1 × 10^4 H9/HIV-1IIIB cells in the presence or absence of the compound at varying concentrations. They were incubated at 37 °C in a humidified atmosphere of 5% CO2. Dextran sulfate (DS) was used as positive control. After 6 h incubation, the number of syncytia was scored under an inverted microscope.

[6] = tested on: HIV-2CBL-20; experiment: Syncytia assay (CPE inhibition), HIV-2CBL-20 in C8166 cells; format: cell-based
Procedure: as §1

[7] = tested on: H9/HIV-1IIIB; experiment: ELISA in chronically infected H9/HIV-1IIIB cells; format: cell-based; details: Human immunodeficiency virus 1
Procedure: Chronically infected cell with HIV-1IIIB (H9/HIV-1IIIB) were washed three times with PBS to remove free virus particle. 200 µL/well (3 × 10^5 cells/mL) of the cell suspension was cultured for three days in a 96-well culture plate with different concentrations of compound. The p24 antigen in the culture supernatants was assayed by ELISA.

[8] = MTT-based cytotoxicity assay, H9/HIV-1IIIB; format: cell-based; details: human, H9/HIV-1IIIB cells; H9/HIV-1IIIB, MTT, 3 days
Procedure: as §2

[9] = tested on: H9/HIV-1IIIB; experiment: MTT-based cytotoxicity assay, H9/HIV-1IIIB; format: cell-based; details: 3 days of incubation; listed as 7-Hydroxymethyl-CPT
Procedure: as §2

[10] = tested on: HIV-1IIIB; experiment: Syncytia assay (CPE inhibition), HIV-1IIIB in C8166 cells; format: cell-based
Procedure: as §1

[11] = MTT-based cytotoxicity assay, PBMC; format: cell-based; details: human
Procedure: (§3) Cell lines (C8166, H9, H9/HIV-1IIIB, Jurkat, Jurkat/HIV-1IIIB) were maintained in RPMI-1640 supplemented with 10% heat-inactivated newborn calf serum (Gibco, Auckland, New Zealand). The cells used in all experiments were in log-phase growth. PBMC from healthy donors were isolated by Ficoll-Hypaque centrifugation, then incubated in complete medium containing 5μg/mL phytohemagglutinin (PHA) (Sigma) and 50 U/mL human recombinant IL-2 for 72 h prior to use for antiviral assays. The laboratory-derived viruses (HIV-1IIIB, HIV-2ROD, HIV-2CBL-20) were obtained from the Medical Research Council (MRC), AIDS Reagent Project (UK) and the NIH AIDS Research and Reference Reagent Program (USA). The clinically isolated HIV-1KM018 was obtained from a naive HIV-1-infected individual in Yunnan Province, China, as described. The 50% HIV-1 tissue culture infectious dose (TCID50) was determined and calculated by the Reed and Muench method. Virus stocks were stored in aliquots at −70 °C.
as §2

[12] = MTT-based cytotoxicity assay, C8166; format: cell-based; details: human
Procedure: as §2

[13] = tested on: HIV-1KM018; experiment: Inhibition of HIV-1 p24 antigen production in PBMC; format: cell-based
Procedure: Adequate numbers of PHA activated normal PBMC were incubated with HIV-1KM018 (M.O.I. = 0.03) in presence of varying concentrations of the compound. After 3 h of virus adsorption, the cells were washed twice with PBS and incubated with or without various concentration of compound in culture medium supplemented with 50 U/mL human recombinant IL-2 at 1.2 × 10^6 cells/mL for seven days. Half of the medium was changed with corresponding compound concentrations on the third day. At seven days post-infection, HIV-1 p24 antigen in cell-free culture supernatants was analyzed by ELSIA. The percent inhibition of HIV-1 p24 antigen production in PBMC was calculated.

[14] = molecular target: T3, HIV-1 protease (Human immunodeficiency virus type 1 group M subtype B, UniProt P04585); experiment: Inhibition assay of recombinant HIV-1 protease activity (fluorescent); format: biochemical
T3 construct: The recombinant HIV-1 protease (PR) was expressed and purified, as previously described; made in house
Procedure: The recombinant HIV-1 protease (PR) was expressed and purified, as previously described. HIV-1 PR was diluted in reaction buffer. The compounds were added and incubated for 30 min at room temperature. Fluorescent substrate DABCYL-γ-Abu-Ser-Gln-Asn-Tyr-Pro-Ile-Val-Gln-EDANS (Anaspec, San Jose, USA) was added to initiate the reaction. The mixture was allowed to react for 90 min and the change of the fluorescent signal was monitored. Negative (double distilled water) and positive (1 μM indinavir) controls were included. The percent inhibition of PR activity was calculated.

[15] = tested on: HIV-1; design: method as in PMID 9453250; details: latently infected T cell clone; cited from earlier work
[16] = tested on: HIV-1; design: method as in PMID 11424110; details: by inducing selective apoptosis of HIV infected cells; cited from earlier work
[17] = tested on: HIV-1; details: freshly infected U937 monocytoid cells; cited from earlier work
[18] = tested on: PBMC; experiment: MTT-based cytotoxicity assay, PBMC; format: cell-based; details: PBMC, MTT
Procedure: as §3, §2

[19] = tested on: C8166; experiment: MTT-based cytotoxicity assay, C8166; format: cell-based; details: C8166, MTT
Procedure: as §2

[20] = design: method as in PMID 12775425; details: cited from earlier work
[21] = tested on: equine anemia virus; design: method as in PMID 11725078; details: cited from earlier work
[22] = tested on: HIV; design: method as in PMID 11725078; details: cited from earlier work
[23] = Human immunodeficiency virus 2, 72 h, C8166, HIV-2ROD, syncytia, 3 days, read-out: EC50
[24] = cell-free system, in words, listed as 7-hydroxymethyl-CPT
[25] = Human immunodeficiency virus 2, 72 h, C8166, HIV-2CBL-20, syncytia, 3 days, read-out: EC50
[26] = Human immunodeficiency virus 1, 72 h, C8166, HIV-1IIIB, syncytia, 3 days, read-out: EC50
[27] = Human immunodeficiency virus 1, 168 h, PBMC, HIV-1KM018, p24, 7 days, read-out: EC50
[28] = Human immunodeficiency virus 2, C8166, 72 h

SMILES: CC[C@@]1(O)C(=O)OCc2c1cc1n(c2=O)Cc2c-1nc1ccccc1c2CO [Compound 3, 7-Hydroxymethylcamptothecin]
- EC50 [1, 23]: 0.0024 ± 0.0002 µg/mL (≈ 0.00634 µM)
- EC50 [2]: > 44.9 µM
- inhibition of reverse transcriptase [2, 24]: no inhibition; also recorded: did not show any inhibition
- CC50 at 3 days [3]: 0.041 µg/mL (≈ 0.108 µM)
- Kd [4]: 64.9 µM
- inhibition of integrase [4, 24]: no inhibition; also recorded: did not show any inhibition
- EC50 ([5]; Human immunodeficiency virus 1, C8166 with HIV-1IIIB/H9, co-cultivation, 6 h): > 2 µg/mL
- inhibition of viral cell-to-cell transmission ([5]; in words): no inhibition
- EC50 [6, 25]: 0.0005 ± 0.0001 µg/mL (≈ 0.00132 µM)
- EC50 [7]: > 17 µg/mL
- CC50 at 3 days [8]: 0.0157 µg/mL (≈ 0.0415 µM)
- selective killing of chronically infected cells (H9/HIV-1IIIB compared with uninfected H9) [9]: no selective killing
- EC50 [10, 26]: 0.0008 ± 0.0002 µg/mL (≈ 0.00211 µM)
- CC50 at 3 days [11]: 0.06 ± 0.0101 µg/mL (≈ 0.159 µM)
- CC50 at 3 days [12]: 0.159 ± 0.0137 µg/mL (≈ 0.419 µM)
- EC50 [13, 27]: 0.0009 ± 0.0001 µg/mL (≈ 0.00238 µM)
- EC50 [14]: > 106 µM
- inhibition of protease [14, 24]: no inhibition; also recorded: did not show any inhibition

SMILES: CC[C@@]1(O)C(=O)OCc2c1cc1n(c2=O)Cc2cc3cc(O)ccc3nc2-1 [Compound 2, 10-hydroxycamptothecin]
- EC50 [1, 28]: 0.025 ± 0.0009 µg/mL (≈ 0.0686 µM)
- EC50 [6, 28]: 0.0132 ± 0.001 µg/mL (≈ 0.0362 µM)
- EC50 ([10]; Human immunodeficiency virus 1, C8166, 72 h): 0.0334 ± 0.0003 µg/mL (≈ 0.0917 µM)
- CC50 at 3 days ([11]; PBMC, MTT, read-out: CC50): 0.0363 ± 0.0118 µg/mL (≈ 0.0996 µM)
- CC50 at 3 days ([12]; C8166, MTT, 3 days, read-out: CC50): 0.141 ± 0.0097 µg/mL (≈ 0.387 µM)
- EC50 ([13]; Human immunodeficiency virus 1, PBMC, 168 h): 0.0105 ± 0.0004 µg/mL (≈ 0.0288 µM)

SMILES: CC[C@@]1(O)C(=O)OCc2c1cc1n(c2=O)Cc2cc3c([N+](=O)[O-])cccc3nc2-1 [9-nitrocamptothecin (9NC), 9-nitrocamptothecin]
- tumor necrosis factor-mediated activation of HIV-1 [15]: inhibited
- HIV-1 replication [16]: reduced
- inhibition of HIV-1 replication [17]: showed inhibition

SMILES: Cc1cn([C@H]2C[C@H](N=[N+]=[N-])[C@@H](CO)O2)c(=O)[nH]c1=O [AZT, reference compound]
- EC50 ([10]; C8166, HIV-1IIIB, syncytia, 3 days): 0.003 ± 0.0003 µg/mL (≈ 0.0112 µM)
- CC50 [18]: 0.45(mg/ml
- CC50 [19]: 1.12(mg/ml)
- EC50 ([13]; PBMC, HIV-1KM018, p24, 7 days): 0.0024 ± 0.0003 µg/mL (≈ 0.00898 µM)

SMILES: CC[C@@]1(O)C(=O)OCc2c1cc1n(c2=O)Cc2cc3c(CN(C)C)c(O)ccc3nc2-1 [Topotecan]
- treatment of AIDS-related progressive multifocal leukoencephalopathy [20]: efficient

SMILES: CC[C@@]1(O)C(=O)OCc2c1cc1n(c2=O)Cc2cc3ccccc3nc2-1 [Compound 1, Camptothecin]
- EC50 [1, 23]: 0.0067 ± 0.0001 µg/mL (≈ 0.0192 µM)
- inhibition of replication of equine anemia virus [21]: weakly inhibit
- inhibition of replication of HIV [22]: weakly inhibit
- EC50 [6, 25]: 0.004 ± 0.0003 µg/mL (≈ 0.0115 µM)
- EC50 [10, 26]: 0.0057 ± 0.0001 µg/mL (≈ 0.0164 µM)
- CC50 at 3 days ([11]; PBMC (peripheral blood mononuclear cells), PHA-stimulated, PBMC, MTT, read-out: CC50): 0.0759 ± 0.0131 µg/mL (≈ 0.218 µM)
- CC50 at 3 days ([12]; C8166 cells, C8166, MTT, 3 days, read-out: CC50): 0.138 µg/mL (≈ 0.396 µM)
- CC50 ([19]; 3 days): 137.8 ± 7.8 ng/mL (≈ 0.396 µM)
- EC50 [13, 27]: 0.0074 ± 0.0011 µg/mL (≈ 0.0212 µM)
